The source made the active and inactive calls. The calls are words filed in the database; no cut-off is given here.
Columns and labels:
[1] = system: GTPase KRas (Homo sapiens), P01116 [G12C]; assay: Inhibition of KRAS G12C mutant in human NCI-H358 cells assessed as decrease in ERK phosphorylation at 0.1 uM incubated for 4 to 24 hrs by Western blot analysis; assay type: cell-based; settings: time 4-24 hrs
NCI-H358 [2] = assay: Antiproliferative activity against human NCI-H358 cells assessed as inhibition of cell proliferation at 0.03 uM incubated for 14 days by crystal violet staining based colony formation assay; assay type: functional; settings: time 14.0 day
NCI-H358 [3] = assay: Induction of apoptosis in human NCI-H358 cells assessed as late apoptotic cells at 0.3 uM incubated for 24 hrs by Annexin V-FITC/PI staining based flow cytometry (reference value: 1.32 %); assay type: functional
NCI-H358 [4] = assay: Induction of apoptosis in human NCI-H358 cells assessed as necrotic cells at 1 uM incubated for 24 hrs by Annexin V-FITC/PI staining based flow cytometry (reference value: 1.88 %); assay type: functional
[5] = system: GTPase KRas (Homo sapiens), P01116 [G12C]; assay: Inhibition of KRAS G12C mutant in human NCI-H358 cells assessed as decrease in ERK phosphorylation incubated for 2 to 72 hrs by Western blot analysis; assay type: cell-based; settings: time 2-72 hrs
NCI-H358 [6] = assay: Antiproliferative activity against human NCI-H358 cells harboring KRAS G12C mutant assessed as inhibition of cell proliferation incubated for 3 days by CCK8 assay; assay type: functional, cell-based; settings: NCI-H358, 72 h
NCI-H358 [7] = assay: Induction of apoptosis in human NCI-H358 cells assessed as early apoptotic cells at 1 uM incubated for 24 hrs by Annexin V-FITC/PI staining based flow cytometry (reference value: 5.4 %); assay type: functional
NCI-H358 [8] = assay: Induction of apoptosis in human NCI-H358 cells assessed as late apoptotic cells at 0.5 uM incubated for 24 hrs by Annexin V-FITC/PI staining based flow cytometry (reference value: 1.32 %); assay type: functional
[9] = system: GTPase KRas (Homo sapiens), P01116 [G12C]; assay: Inhibition of KRAS G12C mutant in human NCI-H358 cells assessed as decrease in AKT phosphorylation upto 5 uM by Western blot analysis; assay type: cell-based; settings: time 2-72 hrs, TDE = time-dependent effect
NCI-H358 [10] = assay: Induction of apoptosis in human NCI-H358 cells assessed as increase in cleaved PARP level upto 5 uM incubated for 24 hrs by Western blot analysis; assay type: functional, cell-based
[11] = Tmax in ICR mouse at 30 mg/kg, po measured for 24 hrs by LC-MS/MS analysis; assay type: ADME, organism-based; settings: in vivo
[12] = Toxicity in BALB/c-nu/nu mouse xenografted with human NCI-H358 cells assessed as morphological damage in kidney at 10 to 30 mg/kg, po qd treated for 20 days; assay type: organism-based; settings: in vivo, 480 h, dose 10-30 mg/kg, time 20 day
NCI-H358 [13] = assay: Antitumor activity in human NCI-H358 cells xenografted in BALB/c-nu/nu mouse assessed as tumor growth inhibition at 10 mg/kg, po qd treated for 20 days relative to control; assay type: functional; settings: Mus musculus, NCI-H358, 480 h, time 20 day, read-out: TGI
NCI-H358 [14] = assay: In vivo inhibition of KRAS G12C mutant in human NCI-H358 cells xenografted in BALB/c-nu/nu mouse assessed as decrease in AKT phosphorylation at 10 to 30 mg/kg, po qd treated for 20 days by Western blot analysis; assay type: functional, organism-based; settings: dose 10-30 mg/kg, time 20.0 day
NCI-H358 [15] = assay: Induction of apoptosis in human NCI-H358 cells assessed as increase in cleaved caspase-7 level upto 5 uM incubated for 24 hrs by Western blot analysis; assay type: functional, cell-based
NCI-H358 [16] = assay: Induction of apoptosis in human NCI-H358 cells assessed as viable cells at 0.1 uM incubated for 24 hrs by Annexin V-FITC/PI staining based flow cytometry (reference value: 91.4 %); assay type: functional; settings: Homo sapiens, NCI-H358, read-out: Activity
NCI-H358 [17] = assay: Inhibition of cell migration in human NCI-H358 cells at 0.1 to 1 uM measured for 48 hrs by wound scratch assay; assay type: functional, cell-based; settings: dose 0.1-1 µM
[18] = Toxicity in BALB/c-nu/nu mouse xenografted with human NCI-H358 cells assessed as drug tolerance at 10 to 30 mg/kg, po qd treated for 20 days; assay type: organism-based; settings: in vivo, 480 h, dose 10-30 mg/kg, time 20 day
[19] = AUC (0 to t) in ICR mouse at 3 mg/kg, iv measured for 24 hrs by LC-MS/MS analysis; assay type: ADME, organism-based; design: dose 3 mg/kg, time 24 hrs, route iv; settings: in vivo
NCI-H358 [20] = assay: Induction of apoptosis in human NCI-H358 cells assessed as viable cells at 0.5 uM incubated for 24 hrs by Annexin V-FITC/PI staining based flow cytometry (reference value: 91.4 %); assay type: functional; settings: read-out: Activity
[21] = Oral bioavailability in ICR mouse at 30 mg/kg measured for 24 hrs by LC-MS/MS analysis; assay type: ADME, organism-based; settings: in vivo
[22] = AUC (0 to infinity) in ICR mouse at 30 mg/kg, po measured for 24 hrs by LC-MS/MS analysis; assay type: ADME, organism-based; design: time 24 hrs, dose 30 mg/kg, route po; settings: in vivo
NCI-H358 [23] = assay: Antiproliferative activity against human NCI-H358 cells harboring KRAS G12C/Y96D mutant assessed as inhibition of cell proliferation incubated for 48 hrs by CCK8 assay; assay type: functional, cell-based
SOS1-KRAS = SOS1-KRAS (Homo sapiens, UniProt P01116, G12C); assay: Inhibition of KRAS G12C mutant/SOS1 (unknown origin) interaction incubated for 2 hrs in presence of GTP by HTRF assay; assay type: protein-complex assay
SOS1-KRAS, sequence (P01116 whole entry G12C, looked up): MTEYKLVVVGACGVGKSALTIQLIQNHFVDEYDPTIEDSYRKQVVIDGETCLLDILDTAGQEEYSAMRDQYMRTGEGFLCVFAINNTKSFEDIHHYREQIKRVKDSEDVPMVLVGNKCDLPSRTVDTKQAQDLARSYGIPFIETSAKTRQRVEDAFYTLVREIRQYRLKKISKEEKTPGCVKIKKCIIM

[24] = system: GTPase KRas (Homo sapiens), P01116 [G12C]; assay: Inhibition of KRAS G12C mutant in human […] cells assessed as decrease in ERK phosphorylation at 5 to 20 uM incubated for 4 hrs by Western blot analysis; assay type: cell-based; settings: dose 5-20 µM
[25] = Toxicity in BALB/c-nu/nu mouse xenografted with human NCI-H358 cells assessed as morphological damage in spleen at 10 to 30 mg/kg, po qd treated for 20 days; assay type: organism-based; settings: in vivo, 480 h, dose 10-30 mg/kg, time 20 day
[26] = C0 in ICR mouse at 30 mg/kg, po measured for 24 hrs by LC-MS/MS analysis; assay type: ADME, organism-based; settings: in vivo
[27] = Toxicity in BALB/c-nu/nu mouse xenografted with human NCI-H358 cells assessed as histological change in spleen at 10 to 30 mg/kg, po qd treated for 20 days by H and E staining based analysis; assay type: organism-based; settings: in vivo, 480 h, dose 10-30 mg/kg, time 20 day
NCI-H358 [28] = assay: Induction of apoptosis in human NCI-H358 cells assessed as late apoptotic cells at 1 uM incubated for 24 hrs by Annexin V-FITC/PI staining based flow cytometry (reference value: 1.32 %); assay type: functional

GTPase KRas (Homo sapiens), P01116 [G12C], sequence (P01116 whole entry G12C): as the sequence (P01116 whole entry G12C, looked up) above

- inhibition [1]: Active
- inhibition [5]: Dose-Dependent Effect
- IC50 (NCI-H358 [6]): 160 nM
- inhibition [9]: Tde
- Tmax [11]: 4.98 min
- AUC(0-t) at 24 h [19]: 801 ng·h/mL
- bioavailability [21]: 10.4%
- AUC(0-inf) [22]: 835 ng·h/mL
- IC50 (SOS1-KRAS): 210 nM
- inhibition [24]: Active
- C0 [26]: 316 ng/mL
SMILES: C=CC(=O)N1CCN(c2nc(OC[C@@]34CCCN3C[C@H](F)C4)nc3c2cc(-c2cccc4cccc(C)c24)n3C)C[C@@H]1CC#N
- inhibition (NCI-H358 [2]): Active
- Activity (NCI-H358 [3]): 3.93%
- Activity (NCI-H358 [4]): 1.03%
- Activity (NCI-H358 [7]): 22.4%
- Activity (NCI-H358 [8]): 6.26%
- Activity (NCI-H358 [10]): Active
- Activity [12]: Non-Toxic
- inhibition in vivo at 10 mg/kg (NCI-H358 [13]): 65.4%
- inhibition (NCI-H358 [14]): Active
- Activity (NCI-H358 [15]): Active
- viability at 0.1 µM (NCI-H358 [16]): 84.6%
- Activity (NCI-H358 [17]): Active
- Activity [18]: Non-Toxic
- viability at 0.5 µM (NCI-H358 [20]): 79%
- inhibition (NCI-H358 [23]): Active
- Activity [25]: Non-Toxic
- Activity [27]: Non-Toxic
- Activity (NCI-H358 [28]): 5.34%
